Each molecule was assayed on Beet Armyworm (Spodoptera exigua) (assay: Bioassay on Beet Armyworm (BAW), 128-well diet tray assay). Conditions: percent mortality of second instar larvae, 50 μg/cm^2 on artificial diet, five to seven days, 25° C.; Table 3.
Format: in vivo
Method: Certain molecules disclosed in this document were tested against BAW and CEW and CL using procedures described in the following examples. In the reporting of the results, the “BAW & CEW & CL Rating Table” was used (See Table Section).
Bioassays on BAW (Spodoptera exigua)
Bioassays on BAW were conducted using a 128-well diet tray assay. one to five second instar BAW larvae were placed in each well (3 mL) of the diet tray that had been previously filled with 1 mL of artificial diet to which 50 μg/cm^2 of the test compound (dissolved in 50 μL of 90:10 acetone-water mixture) had been applied (to each of eight wells) and then allowed to dry. Trays were covered with a clear self-adhesive cover, and held at 25° C., 14:10 light-dark for five to seven days. Percent mortality was recorded for the larvae in each well; activity in the eight wells was then averaged. The results are indicated in the table entitled “Table 3: Assay Results” (See Table Section).

Row | SMILES | BAW Rating
1 | Cc1cc(/C=C/C(c2cc(Cl)cc(Cl)c2)C(F)(F)F)ccc1C(=O)NCc1ccc(Cl)nc1 (centres unmarked) [AC7] | A (50-100)
2 | Cc1cc(/C=C/C(c2cc(Cl)cc(Cl)c2)C(F)(F)F)ccc1C(=O)NCc1ccccc1F (centres unmarked) [AC9] | A (50-100)
3 | Cc1cc(/C=C/C(c2cc(Cl)cc(Cl)c2)C(F)(F)F)ccc1C(=O)NC1CSC1 (centres unmarked) [AC10] | A (50-100)
4 | Cc1cc(/C=C/C(c2cc(Cl)cc(Cl)c2)C(F)(F)F)ccc1C(=O)NCc1ccccc1 (centres unmarked) [AC11] | A (50-100)
5 | Cc1cc(/C=C/C(c2cc(Cl)cc(Cl)c2)C(F)(F)F)ccc1C(=O)NCc1ccccn1 (centres unmarked) [AC12] | A (50-100)
6 | Cc1cc(/C=C/C(c2cc(Cl)cc(Cl)c2)C(F)(F)F)ccc1C(=O)NC1CS(=O)(=O)C1 (centres unmarked) [AC13] | A (50-100)
7 | Cc1cc(/C=C/C(c2cc(Cl)cc(Cl)c2)C(F)(F)F)ccc1C(=O)NCc1cnc(Cl)s1 (centres unmarked) [AC15] | A (50-100)
8 | Cc1cc(/C=C/C(c2cc(Cl)cc(Cl)c2)C(F)(F)F)ccc1C(=O)NC(C)(C)c1ccccn1 (centres unmarked) [AC16] | A (50-100)
9 | Cc1cc(/C=C/C(c2cc(Cl)cc(Cl)c2)C(F)(F)F)ccc1C(=O)NNc1ccccc1F (centres unmarked) [AC17] | A (50-100)
10 | Cc1cc(/C=C/C(c2cc(Cl)cc(Cl)c2)C(F)(F)F)ccc1C(=O)NCc1ncccn1 (centres unmarked) [AC18] | A (50-100)
11 | Cc1cc(/C=C/C(c2cc(Cl)cc(Cl)c2)C(F)(F)F)ccc1C(=O)NCc1ccoc1 (centres unmarked) [AC20] | A (50-100)
12 | Cc1cc(/C=C/C(c2cc(Cl)c(Cl)c(Cl)c2)C(F)(F)F)ccc1C(=O)NCc1ccc(Cl)nc1 (centres unmarked) [AC22] | A (50-100)
13 | Cc1cc(/C=C/C(c2cc(Cl)c(Cl)c(Cl)c2)C(F)(F)F)ccc1C(=O)NC1CSC1 (centres unmarked) [AC23] | A (50-100)
14 | Cc1cc(/C=C/C(c2cc(Cl)c(Cl)c(Cl)c2)C(F)(F)F)ccc1C(=O)NCc1cnc(Cl)s1 (centres unmarked) [AC26] | A (50-100)
15 | Cc1cc(/C=C/C(c2cc(Cl)c(Cl)c(Cl)c2)C(F)(F)F)ccc1C(=O)NC(C)(C)c1ccccn1 (centres unmarked) [AC27] | A (50-100)
16 | O=C(NCc1ccc(Cl)nc1)c1ccc(/C=C/C(c2cc(Cl)c(Cl)c(Cl)c2)C(F)(F)F)cc1Cl (centres unmarked) [AC28] | A (50-100)
17 | O=C(NC1CSC1)c1ccc(/C=C/C(c2cc(Cl)c(Cl)c(Cl)c2)C(F)(F)F)cc1Cl (centres unmarked) [AC29] | A (50-100)
18 | O=C(NC1CS(=O)(=O)C1)c1ccc(/C=C/C(c2cc(Cl)c(Cl)c(Cl)c2)C(F)(F)F)cc1Cl (centres unmarked) [AC30] | A (50-100)
19 | O=C(NCc1ccc(Cl)nc1)c1ccc(/C=C/C(c2cc(Cl)c(Cl)c(Cl)c2)C(F)(F)F)cc1Br (centres unmarked) [AC31] | A (50-100)
20 | O=C(NC1CSC1)c1ccc(/C=C/C(c2cc(Cl)c(Cl)c(Cl)c2)C(F)(F)F)cc1Br (centres unmarked) [AC32] | A (50-100)
21 | O=C(NC1CS(=O)(=O)C1)c1ccc(/C=C/C(c2cc(Cl)c(Cl)c(Cl)c2)C(F)(F)F)cc1Br (centres unmarked) [AC33] | A (50-100)
22 | O=C(NC1CSC1)c1ccc(/C=C/C(c2cc(Cl)c(Cl)c(Cl)c2)C(F)(F)F)cc1C(F)(F)F (centres unmarked) [AC34] | A (50-100)
23 | O=C(NC1CS(=O)(=O)C1)c1ccc(/C=C/C(c2cc(Cl)c(Cl)c(Cl)c2)C(F)(F)F)cc1C(F)(F)F (centres unmarked) [AC35] | A (50-100)
24 | O=C(NCc1ccc(Cl)nc1)c1ccc(/C=C/C(c2cc(Cl)c(Cl)c(Cl)c2)C(F)(F)F)cc1C(F)(F)F (centres unmarked) [AC36] | A (50-100)
25 | Cc1cc(/C=C/C(c2ccc(Cl)c(Cl)c2)C(F)(F)F)ccc1C(=O)NCc1ccc(Cl)nc1 (centres unmarked) [AC37] | A (50-100)

Row | SMILES | BAW Rating
26 | Cc1cc(/C=C/C(c2cc(Cl)c(F)c(Cl)c2)C(F)(F)F)ccc1C(=O)NCc1ccc(Cl)nc1 (centres unmarked) [AC38] | A (50-100)
27 | Cc1cc(/C=C/C(c2cc(Cl)cc(Cl)c2)C(F)(F)F)ccc1C(=O)NCc1cncnc1 (centres unmarked) [AC39, 4-((E)-3-(3,5-Dichlorophenyl)-4,4,4-trifluorobut-1-enyl)-2-methyl-N-((pyrimidin-5-yl)methyl)benzamide] | A (50-100)
28 | Cc1cc(/C=C/C(c2cc(Cl)cc(Cl)c2)C(F)(F)F)ccc1C(=O)NCC(=O)NC1CC1 (centres unmarked) [AC40] | A (50-100)
29 | Cc1cc(/C=C/C(c2cc(Cl)cc(Cl)c2)C(F)(F)F)ccc1C(=O)NCC(=O)NC1CSC1 (centres unmarked) [AC41] | A (50-100)
30 | Cc1cc(/C=C/C(c2cc(Cl)cc(Cl)c2)C(F)(F)F)ccc1C(=O)NCc1nc2ccccc2s1 (centres unmarked) [AC42] | A (50-100)
31 | Cc1cc(/C=C/C(c2cc(Cl)cc(Cl)c2)C(F)(F)F)ccc1C(=O)NCc1cnccn1 (centres unmarked) [AC43] | A (50-100)
32 | Cc1cc(/C=C/C(c2cc(Cl)cc(Cl)c2)C(F)(F)F)ccc1C(=O)NN(C)c1ccccc1F (centres unmarked) [AC45] | A (50-100)
33 | Cc1cc(/C=C/C(c2cc(Cl)cc(Cl)c2)C(F)(F)F)ccc1C(=O)NCc1ccc(Cl)cc1 (centres unmarked) [AC48] | A (50-100)
34 | O=C(NCc1ccc(Cl)nc1)c1ccc(/C=C/C(c2cc(Cl)cc(Cl)c2)C(F)(F)F)cc1F (centres unmarked) [AC49] | A (50-100)
35 | Cc1cc(/C=C/C(c2cc(Cl)cc(Cl)c2)C(F)(F)F)ccc1C(=O)NCc1nccn1C (centres unmarked) [AC50] | A (50-100)
36 | Cc1cc(/C=C/C(c2cc(Cl)cc(Cl)c2)C(F)(F)F)ccc1C(=O)NCC(=O)N(C)CC(F)(F)F (centres unmarked) [AC51] | A (50-100)
37 | Cc1cc(/C=C/C(c2cc(Cl)c(F)c(Cl)c2)C(F)(F)F)ccc1C(=O)NC1CCOCC1 (centres unmarked) [AC52] | A (50-100)
38 | Cc1cc(/C=C/C(c2cc(Cl)c(F)c(Cl)c2)C(F)(F)F)ccc1C(=O)NCc1ccc(Cl)cn1 (centres unmarked) [AC53] | A (50-100)
39 | Cc1cc(/C=C/C(c2cc(Cl)c(F)c(Cl)c2)C(F)(F)F)ccc1C(=O)NCc1ccnc(Cl)c1 (centres unmarked) [AC54] | A (50-100)
40 | CC(C)(C)OC(=O)CNC(=O)c1ccc(/C=C/C(c2cc(Cl)c(Cl)c(Cl)c2)C(F)(F)F)cc1Br (centres unmarked) [AC58] | A (50-100)
41 | Cc1cc(/C=C/C(c2cc(Cl)cc(Cl)c2)C(F)(F)F)ccc1C(=O)Nc1ccc(Cl)nc1 (centres unmarked) [AC59] | A (50-100)
42 | O=C(NC1CSC1)c1ccc(/C=C/C(c2cc(Cl)cc(Cl)c2)C(F)(F)F)cc1F (centres unmarked) [AC61] | A (50-100)
43 | O=C(CNC(=O)c1ccc(/C=C/C(c2cc(Cl)cc(Cl)c2)C(F)(F)F)cc1F)NCC(F)(F)F (centres unmarked) [AC62] | A (50-100)
44 | O=C(NCc1ccc(Cl)nc1)c1ccc(/C=C/C(c2cc(Cl)c(F)c(Cl)c2)C(F)(F)F)cc1Br (centres unmarked) [AC63] | A (50-100)
45 | O=C(CNC(=O)c1ccc(/C=C/C(c2cc(Cl)c(Cl)c(Cl)c2)C(F)(F)F)cc1Cl)NCC(F)(F)F (centres unmarked) [AC64, (E)-2-Chloro-N-(2-oxo-2-((2,2,2-trifluoroethyl)amino)ethyl)-4-(4,4,4-trifluoro-3-(3,4,5-trichlorophenyl)but-1-en-1-yl)benzamide] | A (50-100)
46 | O=C(NCc1ccc(Cl)nc1)c1ccc(/C=C/C(c2cc(Cl)c(F)c(Cl)c2)C(F)(F)F)cc1F (centres unmarked) [AC65] | A (50-100)
47 | O=C(CNC(=O)c1ccc(/C=C/C(c2cc(Cl)c(Cl)c(Cl)c2)C(F)(F)F)cc1Br)NCC(F)(F)F (centres unmarked) [AC66] | A (50-100)
48 | O=C(NC1CSC1)c1ccc(/C=C/C(c2cc(Cl)c(F)c(Cl)c2)C(F)(F)F)cc1F (centres unmarked) [AC67] | A (50-100)
49 | O=C(CNC(=O)c1ccc(/C=C/C(c2cc(Cl)c(F)c(Cl)c2)C(F)(F)F)cc1F)NCC(F)(F)F (centres unmarked) [AC68] | A (50-100)
50 | Cc1cc(/C=C/C(c2cc(Cl)c(F)c(Cl)c2)C(F)(F)F)ccc1C(=O)NCC(=O)NCC(F)(F)F (centres unmarked) [AC69] | A (50-100)
